The text below walks through data of PubChem BioAssay AID179 (DTP/NCI, 2004).

The subject of the experiment is CEM cells HIV-1 protection, formazan growth assay. The experiment is described as follows: NCI AIDS Antiviral Assay. The settings on record: for IC50: measured here: growth of uninfected CEM cells. The procedure: The ability of compounds to protect human CEM cells from HIV-1 infection is measured as a screen for new compounds capable of inhibiting the HIV virus. Five concentrations of drug were tested on uninfected and infected cells and cell growth was measured using a soluble formazan assay. […] Compounds that provided at least 50% protection were retested. Compounds that provided at least 50% protection on retest were listed as moderately active. Compounds that reproducibly provided 100% protection were listed as confirmed active. […] Note that the inability to provide protection could be due to toxicity.

Structures are written as SMILES. Values joined by “and” are separate entries in the source; they are usually repeats but may differ in a detail not shown here. Equal entries are not always repeated. Active and inactive are the calls of the source.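 How the source made its calls: active means compounds giving half or more protection of infected cells from virus-caused growth loss, again on retest; inactive means the rest.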

For orientation: EC50 means the concentration giving half of the maximal effect. One may read the IC50 as the concentration that inhibits the measured activity by half. For the compound `COc1ccc2nc3cc(Cl)ccc3c(Sc3ccc([N+](=O)[O-])cc3C)c2c1`, the EC50 was above 12.6 µM and the IC50 was above 12.6 µM.

Consider `CCCCCCCCCCCCCCCCN[Si](NCCCCCCCCCCCCCCCC)(NCCCCCCCCCCCCCCCC)NCCCCCCCCCCCCCCCC`, for which the EC50 is above 240 µM and the IC50 was determined as 138 µM.

For `COc1cc(Br)c(CCC#N)cc1OC`, the EC50 was above 347 µM and the half-maximal inhibitory concentration (IC50) was 37.2 µM.

Turning to `O=C(O)C(Cc1ccccc1)N1C(=O)N/C(=C\c2ccc(F)cc2)C1=O` (stereo not given), the outcome was inactive.

For `Nc1ncn(C2OC(COP(=O)(O)O)C(O)C2O)c(=O)n1` (stereo not given), the EC50 was above 200 µM and the IC50 came to 8.51 µM.

As for `CCO[Si](C)(OCC)OCC`, the EC50 is above 200 µM and the concentration for half-maximal inhibition (IC50) is above 200 µM.

On to `CCc1cccc(CC)c1NC1=CC(=O)C(=O)c2ccccc21`, for which the EC50 is above 23.4 µM and the IC50 was above 23.4 µM.

Regarding `Cc1ccc(C2SCC(=O)N2c2ccc(-c3ccc(-n4c(-c5ccccc5)nc5ccccc5c4=O)cc3)cc2)cc1` (stereo not given), the EC50 was above 191 µM and the half-maximal inhibitory concentration (IC50) amounted to 35.5 µM.

For `Cc1ccc(S(=O)(=O)N/N=c2/sc3ccccc3n2C)cc1`, the EC50 was above 200 µM and the IC50 is above 200 µM.

Take `CCOC(=O)C(=O)Nc1nc2ccc(C)cc2s1`: the result was inactive.

As to `N#Cc1c(N)nc(-c2ccc(Cl)cc2)c2c1-c1ccccc1S(=O)(=O)CC2`, the EC50 is above 100 µM and the IC50 was above 100 µM.

With `CCC12CCCN(Cc3ccccc3)C1c1c(n(C)c3ccccc13)C(C(=O)O)C2` (stereo not given), the EC50 is above 7.76 µM and the IC50 was above 7.76 µM.

For `COc1ccc(C2Oc3c(cccc3-c3c(-c4ccc(O)cc4)oc4cc(O)cc(O)c4c3=O)C(=O)C2O)cc1O` (stereo not given), the EC50 is above 200 µM and the 50% inhibitory concentration (IC50) is 170 µM.

For `O=C(O)c1ccc(Nc2nc3nn(Cc4ccccc4)cc3c(=O)s2)cc1`, the EC50 is above 195 µM and the IC50 is above 195 µM.

On to `O=C(/C=C/c1ccccc1)c1cccs1`, for which the EC50 was above 200 µM and the IC50 is 3.72 µM.

As to `CC(=O)Nc1ccc(/C=C(\C#N)c2ccccc2)cc1`, the EC50 is above 200 µM and the IC50 is above 200 µM.

For `CCCc1cc(=O)oc2c3c(c4c(c12)OC(C)(C)C=C4)O[C@H](C)[C@@H](C)[C@H]3O`, the concentration giving a half-maximal response (EC50) was above 58.9 µM and the IC50 is 17.8 µM.

With `CC1(C)OC2C(=O)C=C(COCc3ccccc3)C2O1` (stereo not given), the EC50 was above 200 µM; the IC50 is 28.2 µM and 10 µM.

With `O=C1NC(=O)C(SSC2C(=O)NC(=O)NC2=O)C(=O)N1`, the EC50 is above 200 µM and the IC50 was above 200 µM.

As for `O=C(/C=C/c1cccs1)c1cccc(C(=O)/C=C/c2cccs2)n1`, the EC50 was above 200 µM and the 50% inhibitory concentration (IC50) worked out at 110 µM.

In the case of `CC(=O)N(C(=O)CC(=O)N1N=C(C)C(N=Nc2cccc([N+](=O)[O-])c2)C1=O)c1ccc(Cl)cc1` (stereo not given), the EC50 was above 170 µM and the half-maximal inhibitory concentration (IC50) turned out to be 72.4 µM.

For the compound `COC(=O)/C(=N\NC(=O)c1ccccc1O)C(C#N)c1ccccc1` (stereo not given), the EC50 was above 741 µM and the IC50 stood at 5.62 µM.

Take `COc1ccc(COCC[C@H](C)OC2OC(CO[Si](C)(C)C(C)(C)C)C(O)C(O)C2O)cc1` (stereo not given in full): the EC50 was above 200 µM and the IC50 amounted to 16.2 µM.

Consider `Cc1ccc(NC(=O)c2cc(S(=O)(=O)N3CCNNC3=O)c(S)cc2Cl)cc1`, for which the concentration giving a half-maximal response (EC50) was 30.2 µM and the half-maximal inhibitory concentration (IC50) was 195 µM.

On to `O=C(Nc1nc(C23CC4CC(CC(C4)C2)C3)cs1)c1cc2cc([N+](=O)[O-])ccc2oc1=O`, for which the EC50 is above 200 µM and the IC50 stood at 178 µM.

On to `CCC(C)C(N)CO` (stereo not given), for which the EC50 is above 200 µM and the IC50 is above 200 µM.

Regarding `Cc1cc(N(CCC#N)CCC#N)ccc1/C(N=Nc1ccc(C(=O)O)cc1)=N\NC(=O)c1cc(Cl)ccc1O`, the EC50 is above 200 µM and the IC50 came out at 112 µM.

Consider `N#CC(C#N)=C1C(C#N)=C(N)NC12OCCO2`, for which the EC50 is above 200 µM and the IC50 was above 200 µM.

`CC1=CC(=O)/C(=C/n2c(=S)[nH]c3ccc([N+](=O)[O-])cc32)C(=O)O1`: the 50% effective concentration (EC50) is above 1000 µM and the concentration for half-maximal inhibition (IC50) worked out at 178 µM.

As to `O=C1c2ccccc2-c2c1c1ccccc1c(=O)n2-c1cccnc1`, the EC50 was above 30.9 µM and the half-inhibitory concentration (IC50) worked out at 7.08 µM.

Turning to `COc1ccc(C(=O)c2ccc(OC)c3ccccc23)c2ccccc12`, the EC50 was above 200 µM and the IC50 came to 1.51 µM.

Consider `c1ccc2c(c1)N=C(c1cccc3ccccc13)CC(c1cccc3ccccc13)S2` (stereo not given), for which the EC50 is above 2.51 µM and the IC50 is above 2.51 µM.

With `COc1cc(-c2oc3cc(OC)c(OC)c(OC)c3c(=O)c2OC)cc(OC)c1OC`, the EC50 is above 200 µM and the IC50 came out at 26.3 µM.

`N=C(c1ccccc1)N(O)C1CCCCC1`: the result was inactive.

With `Cc1cnc(/N=c2\sc(C)cn2-c2ncc(C)s2)s1`, the EC50 was above 200 µM and the IC50 is above 200 µM.

Regarding `Cn1c2c(c3ccccc31)CCN(CCN1CCN(c3cccc(Cl)c3)CC1)C2=O`, the EC50 is above 8.51 µM and the IC50 is above 8.51 µM.

`Cc1nc2ccccc2c2nnc(SCC(=O)N(Cc3ccccc3)c3ccccc3)n12`: the EC50 was above 200 µM and the IC50 is above 200 µM.

For `CCCCN1C(=O)[C@@H]2[C@H](c3ccccc3O)C(c3ccccc3O)[C@@H]2C1=O` (stereo not given in full), the EC50 was above 138 µM and the half-inhibitory concentration (IC50) is 30.2 µM.

As for `CC(=O)Oc1ccc(-c2oc3c([C@H]4C=C(C)CC(c5ccc(OC(C)=O)cc5OC(C)=O)[C@@H]4C(=O)c4ccc(OC(C)=O)c(CC=C(C)C)c4OC(C)=O)c(OC(C)=O)cc(OC(C)=O)c3c(=O)c2CC=C(C)C)c(OC(C)=O)c1` (stereo not given in full), the EC50 was above 8.13 µM and the IC50 is above 8.13 µM.

`CSc1ccc(Nc2cc(=O)[nH]c(=O)[nH]2)cc1`: the EC50 was above 200 µM and the IC50 was above 200 µM.

On to `CC(CC(=O)N(C)[C@H](C[C@@H](C)C(Cl)(Cl)Cl)c1nccs1)C(Cl)(Cl)Cl` (stereo not given in full), for which the result was inactive.

On to `O=C1CCc2cc3c(cc21)CC1(Cc2ccccc2C1)C3`, for which the EC50 is above 200 µM and the IC50 stood at 4.57 µM.

As for `O=c1[nH]c2ncsc2c(=O)n1OS(=O)(=O)c1ccccc1`, the EC50 is above 200 µM and the IC50 is 12.9 µM.

With `Cc1nnc(Nc2ccccc2)o1`, the result was inactive.

On to `Cc1ccc(Sc2cc([N+](=O)[O-])cc(Sc3ccc(C)cc3)c2Sc2ccc(C)cc2)cc1`, for which the EC50 is above 3.72 µM and the IC50 was above 3.72 µM.

For the compound `Cc1csc2nc(-c3ccccc3)c(/C=N/NC(=O)CN(C)C)n12`, the result was inactive.

With `COC1OC2COC1(OC)C1OC(C)(C)OC21` (stereo not given), the EC50 is above 200 µM and the half-maximal inhibitory concentration (IC50) was above 200 µM.

Consider `O=C(O)c1cccc2c(=O)c3ccccc3oc12`, for which the EC50 was above 977 µM and the IC50 was determined as 209 µM.

On to `COC(=O)C1C2C=CC(C2)N1[C@@H](C)c1ccccc1` (stereo not given in full), for which the EC50 is above 28.2 µM and the IC50 is above 28.2 µM.

As for `CN1COCc2cc3cc4c(cc3nc21)OCCO4`, the EC50 was above 200 µM and the IC50 worked out at 97.7 µM.

As for `c1ccc(C2=NOC3(c4ccccc4)SC4CCCCC4CN23)cc1` (stereo not given), the EC50 is above 10.7 µM and the IC50 is above 10.7 µM.

In the case of `C[C@@H](COCP(=O)(O)O)n1cnc2c(N)ncnc21`, the EC50 is above 200 µM and the IC50 is above 200 µM.

Take `CCC[CH2][Ge]([CH2]CCC)([CH2]CCC)[O]C(=O)C(OC)c1ccccc1` (stereo not given): the EC50 is above 151 µM and the 50% inhibitory concentration (IC50) came to 7.41 µM.

For `N#Cc1c(N2CCCC2)ncn(Cc2ccccc2)c1=S`, the EC50 is above 200 µM and the IC50 is above 200 µM.

Take `Cc1ccc(S(=O)(=O)/C(C#N)=C/NC(=S)Nc2ccc(S(N)(=O)=O)cc2)cc1`: the outcome was inactive.

On to `CN1C(=O)CC(c2cccc(C3CC(=O)N(C)C3=O)n2)C1=O` (stereo not given), for which the EC50 is above 832 µM and the half-maximal inhibitory concentration (IC50) is above 832 µM.

With `COc1ccc(-c2onc3ccc(Cl)cc23)cc1`, the EC50 was above 20 µM and the IC50 was above 20 µM.

With `CC1(C)[C@H](C(=O)O)N2C(=O)[C@@H](NS(=O)(=O)c3ccc([N+](=O)[O-])cc3)[C@H]2S1(=O)=O`, the EC50 was above 200 µM and the half-maximal inhibitory concentration (IC50) was determined as 195 µM.

As to `Fc1c(F)c(F)c2c(c1F)CSc1nc3ccccc3n1-2`, the EC50 is above 200 µM and the concentration for half-maximal inhibition (IC50) is above 200 µM.

With `Cc1c(CCN=P(c2ccccc2)(c2ccccc2)c2ccccc2)c(=O)n2c([nH]c3ccccc32)c1C#N`, the EC50 is above 200 µM and the IC50 is 31.6 µM.

Regarding `C=C1c2[nH]c3c([N+](=O)[O-])c(OC)ccc3c2CCN1C(C)=O`, the result was inactive.

Turning to `CC(=O)OC1CC2C(C)(C)C(=O)C=C[C@]2(C)C2CCC3(C)C(c4ccoc4)OC(=O)[C@H]4O[C@]43[C@]12C` (stereo not given in full), the result was inactive.

Take `CCOc1ccc(NC(=O)CC2SC(N)=NC2=O)cc1` (stereo not given): the EC50 is above 447 µM and the IC50 was above 447 µM.

`COC1C2c3cc4c(cc3CC(C#N)(c3ccccc32)N1C(=O)c1ccccc1)OCO4` (stereo not given): the result was inactive.

Consider `Cc1cn2cc(-c3ccncc3)nc2s1`, for which the EC50 was above 209 µM and the IC50 amounted to 112 µM.

As for `NCCN=C(Nc1ccccc1)Nc1ccccc1`, the EC50 is above 200 µM and the IC50 stood at 29.5 µM.

Take `CN(Cc1cnc2nc(N)nc(N)c2n1)c1ccc(C(=O)NC(CCC(=O)O)C(=O)O)c2ccccc12` (stereo not given): the EC50 was above 0.2 µM and the concentration for half-maximal inhibition (IC50) came out at 0.00219 µM.

Regarding `NC1=CN(Cc2ccccc2)C2=N/C(=C\c3ccco3)C(=O)N12`, the EC50 was above 200 µM and the half-maximal inhibitory concentration (IC50) came to 191 µM.

Consider `CCCC[C@H]1C(=O)O[C@H](C)[C@H](NC(=O)c2cccc(NC=O)c2O)C(=O)O[C@@H](C)[C@@H]1OC(=O)CC(C)C`, for which the EC50 is above 1 µM and the half-maximal inhibitory concentration (IC50) is 0.0389 µM.

Turning to `COc1cc2nncc(SC)c2cc1OC`, the EC50 was above 91.2 µM and the IC50 worked out at 72.4 µM.
